Experimental data as given in ChEMBL document CHEMBL1201862, “PubChem BioAssay data set” (2004).
Each block holds one compound with its values, some of them ahead of it. Activity calls are given as the source filed them.

Experiments:
[1] = target: T1, Alkaline phosphatase, tissue-nonspecific isozyme (Homo sapiens, UniProt P05186)
T1 sequence (P05186 whole entry): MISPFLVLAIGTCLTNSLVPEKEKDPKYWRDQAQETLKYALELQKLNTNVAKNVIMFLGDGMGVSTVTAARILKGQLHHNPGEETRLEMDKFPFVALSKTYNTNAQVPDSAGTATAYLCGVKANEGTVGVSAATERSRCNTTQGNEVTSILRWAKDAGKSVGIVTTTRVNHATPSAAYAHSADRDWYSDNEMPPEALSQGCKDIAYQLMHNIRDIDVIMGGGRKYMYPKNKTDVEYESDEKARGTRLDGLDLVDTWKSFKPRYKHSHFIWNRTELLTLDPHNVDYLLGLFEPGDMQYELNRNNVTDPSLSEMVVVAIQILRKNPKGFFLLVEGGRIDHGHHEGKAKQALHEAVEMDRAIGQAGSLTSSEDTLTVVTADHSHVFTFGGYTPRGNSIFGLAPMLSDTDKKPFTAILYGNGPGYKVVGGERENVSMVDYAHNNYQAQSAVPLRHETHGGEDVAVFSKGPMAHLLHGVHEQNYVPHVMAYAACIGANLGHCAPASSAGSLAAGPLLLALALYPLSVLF

[2] = target: T1, Alkaline phosphatase, tissue-nonspecific isozyme; assay: TNAP enzyme activators, dose response, selectivity assay for human IAP activator project, biochemical, TNAP isozyme, human IAP uHTS hits (AID 488886); format: functional;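 note: potency of compounds raising TNAP activity as a selectivity check on IAP activators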
[3] = target: Intestinal-type alkaline phosphatase (Mus musculus, UniProt P24822); assay: PubChem AID 488874; format: functional
[4] = target: T2, Intestinal-type alkaline phosphatase (Homo sapiens, UniProt P09923); assay: human IAP activators, dose response, biochemical, luminescent, uHTS hits, set 2 (AID 488817); format: functional;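 note: potency of activators that raise enzyme activity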
[5] = target: T2, Intestinal-type alkaline phosphatase; assay: human intestinal alkaline phosphatase activators, dose response, biochemical, luminescence, uHTS hits (AID 463120); format: functional
Coagulation factor XII = target: T3, Coagulation factor XII (Homo sapiens, UniProt P00748); assay: FXIIa inhibitor potency, concentration-response, biochemical (AID 716); format: functional
T3 sequence (P00748 whole entry): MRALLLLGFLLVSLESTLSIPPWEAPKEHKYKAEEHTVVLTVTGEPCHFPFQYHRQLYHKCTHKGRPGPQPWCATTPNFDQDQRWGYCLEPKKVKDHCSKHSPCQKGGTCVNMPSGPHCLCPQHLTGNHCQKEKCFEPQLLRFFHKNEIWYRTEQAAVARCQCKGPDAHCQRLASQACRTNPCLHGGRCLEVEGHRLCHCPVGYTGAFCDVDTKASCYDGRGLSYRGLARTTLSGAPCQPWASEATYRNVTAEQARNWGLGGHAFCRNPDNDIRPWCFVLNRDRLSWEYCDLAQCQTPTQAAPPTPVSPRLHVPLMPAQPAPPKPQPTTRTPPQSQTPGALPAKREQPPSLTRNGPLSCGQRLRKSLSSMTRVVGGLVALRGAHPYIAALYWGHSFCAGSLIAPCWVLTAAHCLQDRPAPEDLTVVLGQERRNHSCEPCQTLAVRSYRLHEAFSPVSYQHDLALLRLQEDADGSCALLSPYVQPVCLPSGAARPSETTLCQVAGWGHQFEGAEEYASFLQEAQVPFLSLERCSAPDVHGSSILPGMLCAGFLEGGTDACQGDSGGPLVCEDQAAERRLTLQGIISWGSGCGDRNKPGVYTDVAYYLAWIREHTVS

[6] = HepG2 cell cytotoxicity, dose response, cytotoxicity control, plate reader, cherry-pick, antagonist series (AID 743416); format: functional, cell-based
[7] = target: T4, Melanin-concentrating hormone receptor 1 (Homo sapiens, UniProt Q99705); assay: Late-stage fluorescence-based counterscreen for antagonists of the G-protein coupled receptor 7 (GPR7): cell-based dose response assay to identify antagonists of the melanin-concentrating hormone receptor 1 (MCHR1). [Related pubchem assays (depositor defined):AID1861, AID1880, AID1952, AID2148, AID2251, AID2257, AID485339]; format: functional
[8] = HEK293 cell cytotoxicity, dose response, cytotoxicity control, plate reader, cherry-picked samples (AID 743446); format: functional, cell-based
[9] = target: T5, Neuropeptides B/W receptor type 1 (Homo sapiens, UniProt P48145); assay: GPR7 antagonist potency, late-stage follow-up, cell-based, fluorescence, dose response (AID 463251); format: functional
T5 sequence (P48145 whole entry): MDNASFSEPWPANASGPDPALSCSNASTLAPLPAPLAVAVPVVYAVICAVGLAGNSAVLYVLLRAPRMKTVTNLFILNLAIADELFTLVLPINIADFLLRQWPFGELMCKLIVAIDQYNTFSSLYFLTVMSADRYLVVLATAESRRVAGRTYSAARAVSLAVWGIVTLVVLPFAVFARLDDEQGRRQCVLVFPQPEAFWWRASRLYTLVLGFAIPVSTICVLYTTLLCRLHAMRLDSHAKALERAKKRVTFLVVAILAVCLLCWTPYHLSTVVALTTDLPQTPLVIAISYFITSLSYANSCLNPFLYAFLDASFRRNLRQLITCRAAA

[10] = target: T5, Neuropeptides B/W receptor type 1; assay: Fluorescence-based dose response cell-based high throughput screening assay to identify antagonists of the G-protein coupled receptor 7 (GPR7). [Related pubchem assays: 1952 (Screening assay (GPR7 antagonists).), 1880 (Summary AID.)]; format: functional
[11] = target: T4, Melanin-concentrating hormone receptor 1; assay: Fluorescence-based counterscreen for antagonists of the G-protein coupled receptor 7 (GPR7): cell-based high throughput dose response assay to identify antagonists of the melanin-concentrating hormone receptor 1 (MCHR1).; format: functional
[12] = A549 cell cytotoxicity, dose response, cytotoxicity control, plate reader, cherry-pick, antagonist series (AID 743412); format: functional, cell-based
[13] = target: T6, Corticotropin-releasing factor receptor 2/Corticotropin-releasing factor-binding protein (Homo sapiens, UniProt P24387+Q13324); assay: activators of CRF receptor 2 with binding protein – uHTS hits, confirmation (AID 602473); format: functional; conditions: read-out: EC50_Mean
T6 sequence (Q13324 whole entry): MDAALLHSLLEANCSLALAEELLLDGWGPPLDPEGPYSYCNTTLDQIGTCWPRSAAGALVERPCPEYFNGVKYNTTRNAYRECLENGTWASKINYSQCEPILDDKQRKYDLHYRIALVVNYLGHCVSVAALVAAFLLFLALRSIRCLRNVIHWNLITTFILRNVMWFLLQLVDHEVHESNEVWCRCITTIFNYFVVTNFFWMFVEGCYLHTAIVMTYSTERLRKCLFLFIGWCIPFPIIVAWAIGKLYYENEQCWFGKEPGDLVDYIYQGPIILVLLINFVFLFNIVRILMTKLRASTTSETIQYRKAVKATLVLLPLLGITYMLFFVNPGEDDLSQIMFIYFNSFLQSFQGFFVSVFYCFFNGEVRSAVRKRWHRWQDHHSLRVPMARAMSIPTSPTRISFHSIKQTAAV
T6 sequence (P24387 whole entry): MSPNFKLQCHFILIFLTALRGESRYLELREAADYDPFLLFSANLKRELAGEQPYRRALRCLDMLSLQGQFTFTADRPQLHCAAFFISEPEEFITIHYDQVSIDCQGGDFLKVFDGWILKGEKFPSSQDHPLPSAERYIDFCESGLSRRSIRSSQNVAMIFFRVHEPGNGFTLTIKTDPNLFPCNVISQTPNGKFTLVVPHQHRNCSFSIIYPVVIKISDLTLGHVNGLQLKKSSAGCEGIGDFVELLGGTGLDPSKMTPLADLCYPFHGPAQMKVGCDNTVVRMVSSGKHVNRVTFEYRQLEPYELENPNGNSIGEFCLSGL

[14] = target: NACHT, LRR and PYD domains-containing protein 1 (Homo sapiens, UniProt Q9C000); assay: NALP1 inhibitors in yeast, dose response, luminescent (AID 488860); format: functional
Saccharomyces cerevisiae = assay: NALP1 inhibitor project selectivity study, Caspase-1/ASC signal blockade IC50 in S. cerevisiae (AID 488863); format: functional, organism-based

T2 sequence (P09923 whole entry): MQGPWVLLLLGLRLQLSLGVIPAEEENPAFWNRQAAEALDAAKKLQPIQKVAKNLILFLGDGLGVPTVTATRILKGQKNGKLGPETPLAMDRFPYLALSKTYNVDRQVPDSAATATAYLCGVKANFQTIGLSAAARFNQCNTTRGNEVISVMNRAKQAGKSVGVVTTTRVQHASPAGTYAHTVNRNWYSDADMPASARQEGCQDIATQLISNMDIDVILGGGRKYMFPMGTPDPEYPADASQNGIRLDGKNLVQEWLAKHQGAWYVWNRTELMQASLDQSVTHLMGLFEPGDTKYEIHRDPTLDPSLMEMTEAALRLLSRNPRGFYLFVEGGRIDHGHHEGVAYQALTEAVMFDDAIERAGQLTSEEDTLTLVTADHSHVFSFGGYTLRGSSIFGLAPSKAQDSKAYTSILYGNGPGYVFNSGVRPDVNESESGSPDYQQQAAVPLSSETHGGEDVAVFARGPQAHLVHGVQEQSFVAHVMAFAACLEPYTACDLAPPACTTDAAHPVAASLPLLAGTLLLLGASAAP
T4 sequence (Q99705 whole entry): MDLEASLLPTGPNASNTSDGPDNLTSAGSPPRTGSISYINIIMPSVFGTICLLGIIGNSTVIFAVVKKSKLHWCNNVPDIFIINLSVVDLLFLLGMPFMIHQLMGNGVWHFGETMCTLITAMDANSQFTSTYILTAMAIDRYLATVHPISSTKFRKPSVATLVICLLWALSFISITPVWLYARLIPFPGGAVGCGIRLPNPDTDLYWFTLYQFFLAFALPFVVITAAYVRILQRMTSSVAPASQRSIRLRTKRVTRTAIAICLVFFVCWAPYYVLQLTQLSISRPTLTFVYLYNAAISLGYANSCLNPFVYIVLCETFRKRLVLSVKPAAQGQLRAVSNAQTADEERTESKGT
Sequence of NACHT, LRR and PYD domains-containing protein 1 (Q9C000 1-1212 limits assumed): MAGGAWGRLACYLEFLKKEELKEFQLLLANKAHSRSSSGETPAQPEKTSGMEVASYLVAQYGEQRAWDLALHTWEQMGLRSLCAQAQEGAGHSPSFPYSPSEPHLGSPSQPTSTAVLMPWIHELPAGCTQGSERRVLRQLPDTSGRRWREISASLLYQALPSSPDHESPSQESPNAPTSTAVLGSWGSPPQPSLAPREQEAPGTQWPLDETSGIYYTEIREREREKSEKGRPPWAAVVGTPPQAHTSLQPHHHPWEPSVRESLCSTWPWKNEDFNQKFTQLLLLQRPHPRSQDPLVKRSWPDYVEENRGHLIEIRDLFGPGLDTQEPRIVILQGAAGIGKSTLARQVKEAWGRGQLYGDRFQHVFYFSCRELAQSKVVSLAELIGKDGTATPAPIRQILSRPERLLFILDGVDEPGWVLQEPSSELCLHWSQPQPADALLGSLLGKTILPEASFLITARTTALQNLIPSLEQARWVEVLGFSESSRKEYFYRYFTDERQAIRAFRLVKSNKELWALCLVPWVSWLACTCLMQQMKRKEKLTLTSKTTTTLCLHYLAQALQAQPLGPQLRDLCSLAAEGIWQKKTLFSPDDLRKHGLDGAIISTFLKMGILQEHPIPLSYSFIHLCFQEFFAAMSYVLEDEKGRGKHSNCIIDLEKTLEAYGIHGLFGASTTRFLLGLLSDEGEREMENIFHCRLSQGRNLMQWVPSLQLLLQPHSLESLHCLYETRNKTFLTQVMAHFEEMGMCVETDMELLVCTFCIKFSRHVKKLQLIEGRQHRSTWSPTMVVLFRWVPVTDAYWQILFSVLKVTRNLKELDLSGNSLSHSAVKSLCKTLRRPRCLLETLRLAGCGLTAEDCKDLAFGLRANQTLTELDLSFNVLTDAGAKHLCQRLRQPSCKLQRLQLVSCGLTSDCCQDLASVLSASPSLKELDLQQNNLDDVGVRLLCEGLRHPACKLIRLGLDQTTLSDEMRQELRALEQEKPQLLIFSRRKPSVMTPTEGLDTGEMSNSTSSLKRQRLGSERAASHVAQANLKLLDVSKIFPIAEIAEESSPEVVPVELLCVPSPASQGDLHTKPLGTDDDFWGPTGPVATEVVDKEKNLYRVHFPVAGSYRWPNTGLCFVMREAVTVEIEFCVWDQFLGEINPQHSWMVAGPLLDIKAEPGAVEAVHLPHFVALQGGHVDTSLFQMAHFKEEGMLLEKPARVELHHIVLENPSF
Sequence of NACHT, LRR and PYD domains-containing protein 1 (Q9C000 1213-1473 limits assumed): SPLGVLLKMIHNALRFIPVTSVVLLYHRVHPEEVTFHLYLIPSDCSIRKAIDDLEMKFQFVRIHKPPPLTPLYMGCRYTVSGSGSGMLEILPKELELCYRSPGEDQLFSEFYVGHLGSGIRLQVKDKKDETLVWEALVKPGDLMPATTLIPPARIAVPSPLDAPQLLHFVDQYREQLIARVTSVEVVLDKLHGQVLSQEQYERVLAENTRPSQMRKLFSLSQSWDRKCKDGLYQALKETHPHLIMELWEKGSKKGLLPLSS
Sequence of Intestinal-type alkaline phosphatase (Mus musculus, UniProt P24822) (P24822 whole entry): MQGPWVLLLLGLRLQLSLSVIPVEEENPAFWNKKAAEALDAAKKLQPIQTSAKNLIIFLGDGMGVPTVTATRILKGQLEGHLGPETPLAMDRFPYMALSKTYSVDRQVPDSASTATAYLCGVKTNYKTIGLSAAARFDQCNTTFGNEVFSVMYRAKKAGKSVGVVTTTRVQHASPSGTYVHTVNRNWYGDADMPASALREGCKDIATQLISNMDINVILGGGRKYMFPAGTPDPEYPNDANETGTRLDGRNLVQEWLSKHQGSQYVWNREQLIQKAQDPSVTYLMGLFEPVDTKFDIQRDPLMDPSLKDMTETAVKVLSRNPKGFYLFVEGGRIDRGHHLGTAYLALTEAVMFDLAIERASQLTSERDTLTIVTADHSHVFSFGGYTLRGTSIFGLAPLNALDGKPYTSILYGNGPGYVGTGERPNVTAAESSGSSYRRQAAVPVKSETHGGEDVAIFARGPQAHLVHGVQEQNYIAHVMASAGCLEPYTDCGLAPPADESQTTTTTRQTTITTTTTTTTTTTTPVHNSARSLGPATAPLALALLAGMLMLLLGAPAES

EC50 [1]: > 100 µM (not active)
EC50 [2]: 10.2 µM (active)
IC50 [3]: 50 µM (active)
EC50 [4]: 7.62 µM (active)
EC50 [5]: 6.41 µM (active)
Structure (SMILES): CC(C)C(=O)NC(=S)Nc1ccccc1C(=O)Nc1ccccc1

IC50 (Coagulation factor XII): > 50 µM (inactive)
Structure (SMILES): COCCn1nnnc1C(c1cc2ccc(C)cc2[nH]c1=O)N(Cc1ccco1)Cc1cccs1 (stereo unspecified)

Structure (SMILES): O=[N+]([O-])c1cc(S(=O)(=O)N2CCCCCC2)ccc1Cl
AC50 [6]: > 52 µM (inactive)
IC50 [7]: 10.1 µM (inactive)
AC50 [8]: > 52 µM (inactive)
IC50 [9]: 5.8 µM (active)
IC50 [10]: 2.88 µM (active)
IC50 [11]: 8.01 µM (active)
AC50 [12]: > 52 µM (inactive)

Structure (SMILES): COc1ccc(C2=C/C(=C/c3cccnc3)C(=O)O2)cc1OC
EC50 [13]: 3.91 µM (active)
IC50 [14]: > 100 µM (inactive)
IC50 (Saccharomyces cerevisiae): > 100 µM (inactive)
